Results published in PMC10303271, “Synthesis and Receptor Binding Studies of α5 GABAAR Selective Novel Imidazodiazepines Targeted for Psychiatric and Cognitive Disorders” (Molecules, 2023).

Columns and labels:
DAT = target: T1, DAT (Homo sapiens, UniProt Q01959); assay: PDSP primary binding DAT; settings: 1.5 h, primary binding, 10,000 nM; last figure of the line = mean of the 4 before it; some tables list DAT twice; read-out: DAT, PDSP raw data, mean
T1 construct: purchased NIMH Psychoactive Drug Screening Program (PDSP)
T1 sequence (Q01959 whole entry): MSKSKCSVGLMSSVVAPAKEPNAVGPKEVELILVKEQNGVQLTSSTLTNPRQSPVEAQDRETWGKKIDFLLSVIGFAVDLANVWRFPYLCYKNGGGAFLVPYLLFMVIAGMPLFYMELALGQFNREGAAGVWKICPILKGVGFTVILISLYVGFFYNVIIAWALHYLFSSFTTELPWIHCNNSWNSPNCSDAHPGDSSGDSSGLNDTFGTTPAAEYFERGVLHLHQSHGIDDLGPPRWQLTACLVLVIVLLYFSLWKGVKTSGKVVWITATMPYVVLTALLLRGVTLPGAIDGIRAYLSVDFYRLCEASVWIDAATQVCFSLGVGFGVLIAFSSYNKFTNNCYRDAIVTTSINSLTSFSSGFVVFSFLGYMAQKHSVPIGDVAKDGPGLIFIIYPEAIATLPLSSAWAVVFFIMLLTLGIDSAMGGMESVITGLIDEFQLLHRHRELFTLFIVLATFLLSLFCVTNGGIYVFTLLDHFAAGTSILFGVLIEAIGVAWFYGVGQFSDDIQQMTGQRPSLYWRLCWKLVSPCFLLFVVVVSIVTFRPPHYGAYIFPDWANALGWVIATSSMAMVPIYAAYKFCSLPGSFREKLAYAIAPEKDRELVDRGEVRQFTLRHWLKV
Protocol: (§1) To determine if any off-target receptor-binding effects are present, all the novel ligands were sent to the National Institute of Mental Health (NIMH), Psychoactive Drug Screening Program (PDSP). The ligands were screened over a panel of 47 receptors, ion channels, and transporters to determine any other possible interactions with […]. The hERG-binding was also determined. […] No binding of the test compounds to calcium channels was observed. […] It is necessary to screen the compounds for hERG-binding during the early process of drug discovery. The unintentional binding of many drugs to hERG can cause blockade of hERG K+ channels in the heart, which can cause many side effects including cardiac arrhythmias and sudden death. […] All of the α5 imidazodiazepines were tested for hERG-binding.
(§2) The NIMH PDSP assay protocol book [https://kidbdev.med.unc.edu/databases/PDSP%20Protocols%20II%202013-03-28.pdf accessed on 23 April 2023]. describes the protocols for primary and secondary radio-ligand binding assays. These assays were carried out in a final volume of 125 µL per well in the appropriate binding buffer.
(§3) The binding of a ligand to a receptor, ion channel, or transporter was determined in the […] of 10 µM of the appropriate reference compound. […] Plates were incubated in the dark for 90 min at rt, and the reactions were stopped by vacuum filtration onto 0.3% polyethyleneimine (PEI) soaked 96-well filter mats using a 96-well Filtermateharvester. This was followed by three washes with cold PBS buffer. Radioactivity was then counted on a Microbeta counter. Nonlinear regression was used to analyze the data with N = 6 replicates.

SERT = target: T2, SERT (Homo sapiens, UniProt P31645); assay: PDSP primary binding SERT; settings: primary binding, 10,000 nM; last figure of the line = mean of the 4 before it; some tables list SERT twice; read-out: SERT, PDSP raw data, mean
T2 construct: purchased NIMH Psychoactive Drug Screening Program (PDSP)
T2 sequence (P31645 whole entry): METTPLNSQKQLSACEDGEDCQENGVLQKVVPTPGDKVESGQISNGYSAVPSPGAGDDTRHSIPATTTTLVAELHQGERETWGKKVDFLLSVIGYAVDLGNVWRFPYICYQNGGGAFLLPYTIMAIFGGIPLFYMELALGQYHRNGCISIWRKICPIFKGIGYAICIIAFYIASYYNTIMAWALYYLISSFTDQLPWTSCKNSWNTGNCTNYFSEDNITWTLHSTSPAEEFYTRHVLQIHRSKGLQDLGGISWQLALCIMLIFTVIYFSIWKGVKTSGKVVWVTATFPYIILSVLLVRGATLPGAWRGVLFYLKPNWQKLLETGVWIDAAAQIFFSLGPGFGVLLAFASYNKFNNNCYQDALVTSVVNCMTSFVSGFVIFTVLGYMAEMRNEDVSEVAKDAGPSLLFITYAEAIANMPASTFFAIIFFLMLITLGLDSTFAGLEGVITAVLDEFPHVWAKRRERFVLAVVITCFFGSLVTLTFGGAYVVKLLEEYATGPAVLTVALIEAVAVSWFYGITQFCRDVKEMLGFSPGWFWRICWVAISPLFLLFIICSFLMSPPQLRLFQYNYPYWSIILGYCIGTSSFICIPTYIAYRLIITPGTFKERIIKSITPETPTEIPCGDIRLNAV
Protocol: as §1, §2, §3

NOP = target: T3, NOP (Homo sapiens, UniProt P41146); assay: PDSP primary binding NOP; settings: primary binding, 10,000 nM; last figure of the line = mean of the 4 before it
T3 construct: purchased NIMH Psychoactive Drug Screening Program (PDSP)
T3 sequence (P41146 whole entry): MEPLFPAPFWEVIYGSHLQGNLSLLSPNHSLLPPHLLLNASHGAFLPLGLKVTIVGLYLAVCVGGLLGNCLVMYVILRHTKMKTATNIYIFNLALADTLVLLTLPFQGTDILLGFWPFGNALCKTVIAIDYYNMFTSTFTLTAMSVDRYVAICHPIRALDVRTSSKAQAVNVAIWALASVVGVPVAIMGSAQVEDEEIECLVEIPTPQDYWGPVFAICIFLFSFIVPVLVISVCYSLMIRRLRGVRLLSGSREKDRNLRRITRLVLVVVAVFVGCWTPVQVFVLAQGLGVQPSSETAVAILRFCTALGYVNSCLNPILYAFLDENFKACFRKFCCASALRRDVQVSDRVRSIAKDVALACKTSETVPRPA
Protocol: as §1, §2, §3

OT = target: T4, OT (Homo sapiens, UniProt P30559); assay: PDSP primary binding OT (Oxytocin); settings: primary binding, 10,000 nM; last figure of the line = mean of the 4 before it; some tables list it twice; read-out: OT (also Oxytocin), PDSP raw data, mean
T4 construct: purchased NIMH Psychoactive Drug Screening Program (PDSP)
T4 sequence (P30559 1-389): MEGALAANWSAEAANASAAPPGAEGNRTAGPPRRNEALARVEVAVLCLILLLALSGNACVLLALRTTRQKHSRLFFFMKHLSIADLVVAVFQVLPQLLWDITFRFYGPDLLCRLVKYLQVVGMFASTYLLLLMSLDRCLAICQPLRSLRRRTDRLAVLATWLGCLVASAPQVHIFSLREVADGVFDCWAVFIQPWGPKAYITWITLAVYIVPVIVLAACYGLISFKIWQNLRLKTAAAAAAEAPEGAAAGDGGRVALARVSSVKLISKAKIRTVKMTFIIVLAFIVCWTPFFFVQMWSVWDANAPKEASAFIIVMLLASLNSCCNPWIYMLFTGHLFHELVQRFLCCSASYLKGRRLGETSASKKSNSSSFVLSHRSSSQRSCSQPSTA
Protocol: as §1, §2, §3

AT2 = target: T5, AT2 (Homo sapiens, UniProt P50052); assay: PDSP primary binding AT2; settings: primary binding, 10,000 nM; last figure of the line = mean of the 4 before it
T5 construct: purchased NIMH Psychoactive Drug Screening Program (PDSP)
T5 sequence (P50052 whole entry): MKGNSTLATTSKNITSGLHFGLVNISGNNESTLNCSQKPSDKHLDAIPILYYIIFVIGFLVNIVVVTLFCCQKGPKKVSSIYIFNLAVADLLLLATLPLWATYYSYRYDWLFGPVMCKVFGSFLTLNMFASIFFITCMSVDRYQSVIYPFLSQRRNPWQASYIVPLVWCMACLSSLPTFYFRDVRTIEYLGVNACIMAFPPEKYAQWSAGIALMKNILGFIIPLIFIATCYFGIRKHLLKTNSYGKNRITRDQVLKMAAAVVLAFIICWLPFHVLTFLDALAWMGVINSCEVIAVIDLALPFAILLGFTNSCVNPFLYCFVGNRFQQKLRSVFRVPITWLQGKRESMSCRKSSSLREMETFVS
Protocol: as §1
The NIMH PDSP assay protocol book [https://kidbdev.med.unc.edu/databases/PDSP%20Protocols%20II%202013-03-28.pdf accessed on 23 April 2023]. describes the protocols for primary and secondary radio-ligand binding assays. […]
The binding of a ligand to a receptor, ion channel, or transporter was determined in the […] of 10 µM of the appropriate reference compound. Nonspecific binding was also determined in the absence and presence of 10 µM of the appropriate reference compound. […] Radioactivity was then counted on a Microbeta counter. […]

Structure (SMILES) | inhibition at 10 µM (DAT) [%] | inhibition at 10 µM (SERT) [%] | NOP, PDSP raw data, mean (NOP) [%] | inhibition at 10 µM (OT) [%] | AT2, PDSP raw data, mean (AT2) [%]
C[C@H]1N=C(c2ccccc2F)c2cc(-c3ccccc3)ccc2-n2cnc(C(=O)N(C)C)c21 [Compound 5, (R)-6-(2′-Fluorophenyl)-N,N,4-trimethyl-8-phenyl-4H-benzo[f]imidazo[1,5-a][1,4]diazepine-3-carboxamide] | 29.7 | -9.27 |  |  | 
C#Cc1ccc2c(c1)C(c1ccccc1Cl)=N[C@H](C)c1c(C(=O)NC)ncn1-2 [Compound 21, (R)-6-(2′-Chlorophenyl)-8-ethynyl-N,4-dimethyl-4H-benzo[f]imidazo[1,5-a][1,4]diazepine-3-carboxamide] |  | 9.24 | -0.1 | -0.63 | 
C#Cc1ccc2c(c1)C(c1ccccn1)=N[C@@H](C)c1c(C(=O)NC)ncn1-2 [Compound 23, (S)-8-Ethynyl-N,4-dimethyl-6-(pyridin-2′-yl)-4H-benzo[f]imidazo[1,5-a][1,4]diazepine-3-carboxamide] |  | -7.1 |  | 47.4 | 
C#Cc1ccc2c(c1)C(c1ccccc1Cl)=N[C@H](C)c1c(C(=O)N(C)CC)ncn1-2 [Compound 29] |  | 6.07 |  | 41.8 | 
C#Cc1ccc2c(c1)C(c1ccccn1)=N[C@@H](C)c1c(C(=O)N(C)C)ncn1-2 [Compound 31, (S)-8-Ethynyl-N,N,4-trimethyl-6-(pyridin-2′-yl)-4H-benzo[f]imidazo[1,5-a][1,4]diazepine-3-carboxamide] | 15.5 | 4.04 | -14.49 | 23.7 | 
C#Cc1ccc2c(c1)C(c1ccccc1F)=N[C@H](C)c1c(C(=S)N(C)C)ncn1-2 [Compound 33, (R)-8-Ethynyl-6-(2′-fluorophenyl)-N,N,4-trimethyl-4H-benzo[f]imidazo[1,5-a][1,4]diazepine-3-carbothioamide] | 29.7 | -9.27 |  |  | 
CCc1noc(-c2ncn3c2[C@@H](C)N=C(c2ccccc2F)c2cc(-c4ccccc4)ccc2-3)n1 [Compound 35, (R)-3-Ethyl-5-(6-(2′-fluorophenyl)-4-methyl-8-phenyl-4H-benzo[f]imidazo[1,5-a][1,4]diazepin-3-yl)-1,2,4-oxadiazole] | 49.4 | 17.2 |  | 6.27 | 
CCc1noc(-c2ncn3c2[C@@H](C)N=C(c2ccccc2F)c2cc(Cl)ccc2-3)n1 [Compound 36, (R)-5-(8-Chloro-6-(2′-fluorophenyl)-4-methyl-4H-benzo[f]imidazo[1,5-a][1,4]diazepin-3-yl)-3-ethyl-1,2,4-oxadiazole] | 11 | 3.09 |  | 14.7 | 
CC(C)c1noc(-c2ncn3c2[C@@H](C)N=C(c2ccccc2F)c2cc(Cl)ccc2-3)n1 [Compound 37, (R)-5-(8-Chloro-6-(2′-fluorophenyl)-4-methyl-4H-benzo[f]imidazo[1,5-a][1,4]diazepin-3-yl)-3-isopropyl-1,2,4-oxadiazole] | 37.5 |  | -10.12 | 10.5 | 12.03
C[C@H]1N=C(c2ccccc2F)c2cc(Cl)ccc2-n2cnc(-c3nc(C4CC4)no3)c21 [Compound 38, (R)-5-(8-Chloro-6-(2′-fluorophenyl)-4-methyl-4H-benzo[f]imidazo[1,5-a][1,4]diazepin-3-yl)-3-cyclopropyl-1,2,4-oxadiazole] | 40 | 13.1 | -17 |  | 24.14
CCc1noc(-c2ncn3c2CN=C(c2ccccc2F)c2cc(C4CC4)ccc2-3)n1 [Compound 44, 5-(8-Cyclopropyl-6-(2′-fluorophenyl)-4H-benzo[f]imidazo[1,5-a][1,4]diazepin-3-yl)-3-ethyl-1,2,4-oxadiazole] | 37.4 | 7.2 |  | 15.4 | 
CCc1noc(-c2ncn3c2[C@@H](C)N=C(c2ccccc2F)c2cc(C4CC4)ccc2-3)n1 [Compound 46, (R)-5-(8-Cyclopropyl-6-(2′-fluorophenyl)-4-methyl-4H-benzo[f]imidazo[1,5-a][1,4]diazepin-3-yl)-3-ethyl-1,2,4-oxadiazole] | 22 | -3.28 | 7.5 | 11.4 | 
